# Like-named read-outs stand apart in the source and are kept apart here.
# Columns and labels:
# ALK3 (aa198-525) = ALK3 (aa198-525) (Homo sapiens (Human), UniProt P36894); experiment: ADPGlo biochemical autophosphorylation assay, ALK3; settings: 15 μm ATP, 60 min at 32° C.
# [1] = tested on: BMP response element (BRE) luciferase reporter in HuH7 cells, BMP6 stimulated; experiment: BMP signaling reporter gene assay; type: cell-based; settings: Homo sapiens, read-out: MSD BMP RGA IC50
# ALK5 (aa162-503) = ALK5 (aa162-503) (Homo sapiens (Human), UniProt P36897); experiment: Caliper biochemical peptide phosphorylation assay, ALK5; settings: 15 μm ATP, 60 min at 30° C.; read-out: ALK5 EPK (IC50)
# Sequence of ALK5 (aa162-503) (P36897 162-503): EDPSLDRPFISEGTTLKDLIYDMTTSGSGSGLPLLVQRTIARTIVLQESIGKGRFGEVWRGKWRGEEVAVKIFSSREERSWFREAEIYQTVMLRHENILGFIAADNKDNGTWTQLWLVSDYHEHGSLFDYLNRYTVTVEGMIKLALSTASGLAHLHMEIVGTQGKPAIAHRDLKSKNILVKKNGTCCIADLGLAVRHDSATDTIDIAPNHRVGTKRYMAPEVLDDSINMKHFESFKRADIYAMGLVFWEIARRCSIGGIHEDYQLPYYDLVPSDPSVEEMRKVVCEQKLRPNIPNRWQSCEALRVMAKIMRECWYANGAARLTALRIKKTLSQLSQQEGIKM
# ALK1 (aa166-493) = ALK1 (aa166-493) (Homo sapiens (Human), UniProt P37023); experiment: Caliper biochemical peptide phosphorylation assay, ALK1; settings: 15 μm ATP, 60 min at 30° C.; read-out: ALK1 EPK (IC50)
# Sequence of ALK1 (aa166-493) (P37023 166-493): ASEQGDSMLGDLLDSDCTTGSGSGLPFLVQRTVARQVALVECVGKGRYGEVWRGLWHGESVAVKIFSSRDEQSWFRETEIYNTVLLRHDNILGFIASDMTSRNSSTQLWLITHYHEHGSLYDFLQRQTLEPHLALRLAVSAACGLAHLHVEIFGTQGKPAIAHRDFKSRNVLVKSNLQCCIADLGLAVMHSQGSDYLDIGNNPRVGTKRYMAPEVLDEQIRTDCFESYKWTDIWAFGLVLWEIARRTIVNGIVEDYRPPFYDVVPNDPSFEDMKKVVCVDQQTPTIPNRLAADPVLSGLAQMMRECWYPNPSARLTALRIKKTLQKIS
# ALK6 (aa168-495) = ALK6 (aa168-495) (Homo sapiens (Human), UniProt O00238); experiment: Caliper biochemical peptide phosphorylation assay, ALK6; settings: 15 μm ATP, 60 min at 30° C.; read-out: ALK6 EPK (IC50)
# Sequence of ALK6 (aa168-495) (O00238 168-495): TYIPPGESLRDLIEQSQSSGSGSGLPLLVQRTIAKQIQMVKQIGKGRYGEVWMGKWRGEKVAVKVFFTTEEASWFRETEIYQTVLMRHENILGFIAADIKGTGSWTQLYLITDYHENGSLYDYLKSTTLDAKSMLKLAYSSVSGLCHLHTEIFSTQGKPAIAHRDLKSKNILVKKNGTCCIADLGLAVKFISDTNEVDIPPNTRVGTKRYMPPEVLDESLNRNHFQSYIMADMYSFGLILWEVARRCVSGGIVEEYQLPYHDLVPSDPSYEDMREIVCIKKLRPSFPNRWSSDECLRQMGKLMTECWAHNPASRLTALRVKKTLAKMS
# [2] = target: T1, wild-type ALK2 (aa172-499) (Homo sapiens (Human), UniProt Q04771); experiment: Caliper biochemical peptide phosphorylation assay, ALK2; settings: 15 μm ATP, 60 min at 30° C.; read-out: ALK2 EPK (IC50)
# T1 sequence (Q04771 172-499): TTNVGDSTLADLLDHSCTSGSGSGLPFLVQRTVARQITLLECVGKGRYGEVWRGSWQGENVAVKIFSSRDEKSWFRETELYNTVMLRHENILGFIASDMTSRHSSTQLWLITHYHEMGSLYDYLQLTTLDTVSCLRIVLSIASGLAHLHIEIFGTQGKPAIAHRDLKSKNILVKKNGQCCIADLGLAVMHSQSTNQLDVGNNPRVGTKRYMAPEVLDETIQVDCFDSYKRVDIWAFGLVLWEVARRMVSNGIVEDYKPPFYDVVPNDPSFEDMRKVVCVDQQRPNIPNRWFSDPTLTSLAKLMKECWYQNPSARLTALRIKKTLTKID
# [3] = target: T1, wild-type ALK2 (aa172-499); experiment: ADPGlo biochemical autophosphorylation assay, ALK2; settings: 15 μm ATP, 60 min at 32° C.
# [4] = Huh-7, HuH7 BRE-luciferase, BMP6 100 ng/ml, 5 hours
# Sequence of ALK3 (aa198-525) (P36894 198-525): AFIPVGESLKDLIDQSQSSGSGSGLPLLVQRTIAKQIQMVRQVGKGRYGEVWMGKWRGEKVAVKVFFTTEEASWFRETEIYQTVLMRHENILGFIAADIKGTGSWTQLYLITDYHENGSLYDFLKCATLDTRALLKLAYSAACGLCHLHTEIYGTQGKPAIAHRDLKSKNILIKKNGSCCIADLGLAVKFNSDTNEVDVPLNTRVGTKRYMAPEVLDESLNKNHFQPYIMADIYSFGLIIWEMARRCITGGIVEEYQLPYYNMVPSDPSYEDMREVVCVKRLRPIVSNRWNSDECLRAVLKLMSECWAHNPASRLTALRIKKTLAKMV
Compound,IC50 (ALK3 (aa198-525)) [nM],"IC50 [1, 4] [nM]",IC50 (ALK5 (aa162-503)) [nM],IC50 (ALK1 (aa166-493)) [nM],IC50 (ALK6 (aa168-495)) [nM],IC50 [2] [nM],IC50 [3] [nM],"IC50 ([1]; Huh-7, 5 h) [nM]"
"Nc1ncc(-c2ccc([C@@]34C[C@@H]3CN(C(CF)CF)C4)cc2)cc1C(=O)N[C@H]1CC[C@H](O)CC1 [Example 6, 2-amino-5-(4-((1R,5S)-3-(1,3-difluoropropan-2-yl)-3-azabicyclo[3.1.0]hexan-1-yl)phenyl)-N-((1r,4R)-4-hydroxycyclohexyl)nicotinamide]",940,870,10000,220,5200,15,18,
"COCCN1C[C@@H]2C[C@]2(c2ccc(-c3cnc(N)c(C(=O)NC45CCC(O)(CC4)CC5)c3)cc2)C1 [Example 7, 2-amino-N-(4-hydroxybicyclo[2.2.2]octan-1-yl)-5-(4-((1S,5R)-3-(2-methoxyethyl)-3-azabicyclo[3.1.0]hexan-1-yl)phenyl)nicotinamide]",875,51,5450,195,2400,12,12,
"CC(C)N1CCN(c2ccc(-c3cnc(N)c(C(=O)N[C@H]4CC[C@H](O)CC4)c3)c(F)c2)CC1 [Example 8, 2-amino-5-(2-fluoro-4-(4-isopropylpiperazin-1-yl)phenyl)-N-((1r,4r)-4-hydroxycyclohexyl)nicotinamide]",1900,69,4000,220,5000,12,13,
"CC(C)N1C[C@@H]2C[C@]2(c2ccc(-c3cnc(N)c(C(=O)N[C@H]4CC[C@H](O)CC4)c3)cc2)C1 [Example 9, 2-amino-N-((1r,4S)-4-hydroxycyclohexyl)-5-(4-((1S,5R)-3-isopropyl-3-azabicyclo[3.1.0]hexan-1-yl)phenyl)nicotinamide]",1600,43,3130,127,3130,11,11,
"Nc1ncc(-c2ccc([C@@]34C[C@@H]3CN(CCN3CCOCC3)C4)cc2)cc1C(=O)N[C@H]1CC[C@H](O)CC1 [Example 10, 2-amino-N-((1r,4R)-4-hydroxycyclohexyl)-5-(4-((1R,5S)-3-(2-morpholinoethyl)-3-azabicyclo[3.1.0]hexan-1-yl)phenyl)nicotinamide]",1400,61,2600,89,2500,11,11,
"Nc1ncc(-c2ccc([C@]34C[C@H]3CN(CCF)C4)cc2)cc1C(=O)N[C@H]1CC[C@H](O)CC1 [Example 11, 2-amino-5-(4-((1S,5R)-3-(2-fluoroethyl)-3-azabicyclo[3.1.0]hexan-1-yl)phenyl)-N-((1r,4S)-4-hydroxycyclohexyl)nicotinamide]",1100,51,2400,150,3900,12,9,
"Nc1ncc(-c2ccc([C@]34C[C@H]3CN(CCN3CCOCC3)C4)cc2)cc1C(=O)N[C@H]1CC[C@H](O)CC1 [Example 13, 2-amino-N-((1r,4S)-4-hydroxycyclohexyl)-5-(4-((1S,5R)-3-(2-morpholinoethyl)-3-azabicyclo[3.1.0]hexan-1-yl)phenyl)nicotinamide]",1400,78,3100,140,3000,13,8,
"Nc1ncc(-c2ccc([C@@]34C[C@@H]3CN(CCN3CCOCC3)C4)cc2)cc1C(=O)NC12CCC(O)(CC1)CC2 [Example 15, 2-amino-N-(4-hydroxybicyclo[2.2.2]octan-1-yl)-5-(4-((1R,5S)-3-(2-morpholinoethyl)-3-azabicyclo[3.1.0]hexan-1-yl)phenyl)nicotinamide]",967,74,3770,370,2230,20,29,
"CC(C)N1C[C@@H]2C[C@]2(c2ccc(-c3cnc(N)c(C(=O)NC45CC(CO)(C4)C5)c3)cc2)C1 [Example 16, 2-amino-N-(3-(hydroxymethyl)bicyclo[1.1.1]pentan-1-yl)-5-(4-((1S,5R)-3-isopropyl-3-azabicyclo[3.1.0]hexan-1-yl)phenyl)nicotinamide]",1400,79,9900,240,5000,15,12,
"Nc1ncc(-c2ccc([C@]34C[C@H]3CN(CCC(F)(F)F)C4)cc2)cc1C(=O)N[C@H]1CC[C@H](O)CC1 [Example 17, 2-amino-N-((1r,4S)-4-hydroxycyclohexyl)-5-(4-((1S,5R)-3-(3,3,3-trifluoropropyl)-3-azabicyclo[3.1.0]hexan-1-yl)phenyl)nicotinamide]",2000,150,1600,110,2400,14,12,
"COCCN1C[C@@H]2C[C@]2(c2ccc(-c3cnc(N)c(C(=O)N[C@H]4CC[C@H](O)CC4)c3)cc2)C1 [Example 20, 2-amino-N-((1r,4S)-4-hydroxycyclohexyl)-5-(4-((1S,5R)-3-(2-methoxyethyl)-3-azabicyclo[3.1.0]hexan-1-yl)phenyl)nicotinamide]",1350,40,3800,130,3950,17,7,
"Nc1ncc(-c2ccc([C@@]34C[C@@H]3CN(C3CCOCC3)C4)cc2)cc1C(=O)N[C@@H]1CC[C@@H](O)[C@@H](F)C1 [Example 21, 2-amino-N-((1R,3S,4R)-3-fluoro-4-hydroxycyclohexyl)-5-(4-((1R,5S)-3-(tetrahydro-2H-pyran-4-yl)-3-azabicyclo[3.1.0]hexan-1-yl)phenyl)nicotinamide]",260,35,900,55,1000,19,6,
"Nc1ncc(-c2ccc(CN3CC4(CCC4)C3)cc2)cc1C(=O)N[C@H]1CC[C@H](O)CC1 [Example 23, 5-(4-(2-azaspiro[3.3]heptan-2-ylmethyl)phenyl)-2-amino-N-((1r,4r)-4-hydroxycyclohexyl)nicotinamide]",1600,,2700,250,2400,18,9,23
"CC(C)N1C[C@H]2C[C@@]2(c2ccc(-c3cnc(N)c(C(=O)N[C@H]4CC[C@](C)(O)CC4)c3)cc2)C1 [Example 24, 2-amino-N-((1r,4R)-4-hydroxy-4-methylcyclohexyl)-5-(4-((1R,5S)-3-isopropyl-3-azabicyclo[3.1.0]hexan-1-yl)phenyl)nicotinamide]",6480,81,6800,543,7300,16,11,
"Nc1ncc(-c2ccc([C@]34C[C@H]3CN(C3COC3)C4)cc2)cc1C(=O)N[C@H]1CC[C@H](O)CC1 [Example 26, 2-amino-N-((1r,4S)-4-hydroxycyclohexyl)-5-(4-((1S,5R)-3-(oxetan-3-yl)-3-azabicyclo[3.1.0]hexan-1-yl)phenyl)nicotinamide]",1700,110,4300,230,2500,18,18,
"Nc1ncc(-c2ccc([C@]34C[C@H]3CN(C3CCOCC3)C4)cc2)cc1C(=O)NC12CC(CO)(C1)C2 [Example 28, 2-amino-N-(3-(hydroxymethyl)bicyclo[1.1.1]pentan-1-yl)-5-(4-((1S,5R)-3-(tetrahydro-2H-pyran-4-yl)-3-azabicyclo[3.1.0]hexan-1-yl)phenyl)nicotinamide]",530,17,9400,250,3300,18,11,
"Nc1ncc(-c2ccc(N3CCNCC3)cc2F)cc1C(=O)N[C@H]1CC[C@H](O)CC1 [Example 29, 2-amino-5-(2-fluoro-4-(piperazin-1-yl)phenyl)-N-((1r,4r)-4-hydroxycyclohexyl)nicotinamide]",2500,685,4000,280,4000,20,22,
"Nc1ncc(-c2ccc([C@@]34C[C@@H]3CN(C3CCOCC3)C4)cc2)cc1C(=O)NC12CC(CO)(C1)C2 [Example 30, 2-amino-N-(3-(hydroxymethyl)bicyclo[1.1.1]pentan-1-yl)-5-(4-((1R,5S)-3-(tetrahydro-2H-pyran-4-yl)-3-azabicyclo[3.1.0]hexan-1-yl)phenyl)nicotinamide]",500,68,4000,210,2800,22,7,
